Read-outs that look alike come from different tables or passages of the source. Non-standard residues stand in square brackets, D forms with d. Residues, ends and D or L forms follow the SMILES beside them. *: point of attachment. Sta = CC(C)C[C@H](N)[C@@H](O)CC(=O)O; AMC = Cc1cc(=O)oc2cc(N*)ccc12; Isovaleryl = CC(C)CC(=O)*; Cbz = O=C(OCc1ccccc1)*; CHN2 = [N-]=[N+]=C*

This is an account of results in US6544767B1, “Cathespin O2 protease” (Axys Pharmaceuticals, Inc., priority 1994, dated 2003).

Data set [1] deals with T1, recombinant human cathepsin O2 (Homo sapiens, UniProt P43235).
T1 construct: the mature protein spans from position 115 to 329 (215 amino acids); made in house; host or cells: Sf9 insect cells (baculovirus, pVL1392)
T1 sequence (P43235 115-329): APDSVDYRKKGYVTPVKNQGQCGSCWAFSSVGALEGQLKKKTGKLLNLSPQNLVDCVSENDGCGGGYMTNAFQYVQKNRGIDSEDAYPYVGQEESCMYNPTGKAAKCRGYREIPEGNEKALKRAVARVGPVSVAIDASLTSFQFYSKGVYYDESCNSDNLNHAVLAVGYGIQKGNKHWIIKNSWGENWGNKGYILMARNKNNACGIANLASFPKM
The data set can be described thus: Inhibitor profile, fluorimetric enzyme assay with Z-FR-MCA. It counts as biochemical. The conditions noted are these: for inhibition at 0.05 µM: [inhibitor] 0.05 μM. How it is done:
(§1) Human cathepsin O2 was assayed with a fluorogenic substrate Z-FR-MCA (MCA, methyl coumarylamide) in 100 mM sodium acetate buffer, containing 2.5 mM dithioerythreitol and 2.5 mM EDTA. Initial rates of hydrolysis of the MCA-substrate are monitored in 1-cm cuvettes at 25° C. at an excitation wavelength at 380 nm and an emission wavelength at 450 nm. The concentration of Z-FR-MCA is 5 μM under standard conditions.
The inhibition of cathepsin O2 was assayed at a constant substrate (5 μM Z-FR-MCA) and enzyme concentration (1 nM) in the presence of different inhibitor concentrations in the substrate assay buffer. Cathepsin O2 was preincubated with the inhibitors for 10 min and the reaction was started with substrate. The residual activity was monitored and percent inhibition was calculated from the uninhibited rate.
The efficacy of protease class specific inhibitors to inhibit cathepsin O2 was determined by adding the inhibitor to the purified enzyme in a fluorimetric enzyme assay (described above).

Data set [2] concerns the target T1, recombinant human cathepsin O2. Put plainly: Hydrolysis of synthetic MCA substrates (kinetic parameters). It counts as biochemical. How it is done:
as §1
The kinetic constants Vmax and Km were obtained by non-linear regression analysis using the program Enzfitter (Leatherbarrow, Enzfitter, Elsevier Biosoft, Cambridge, United Kingdom (1987).
The substrate specificity towards synthetic substrates was determined using the above described substrate assay.
For the calculation of the kinetic parameters kcat and Km the initial rates were obtained typically at 9-11 different substrate concentrations, and the results are fitted to equation (1). The enzyme concentration is determined by active site titration with E-64 (Kinder et al., Biochem. J. 201:367-372 (1982)). [formula]

A further data set relates to [^3H] elastin. Put plainly: Elastin degradation assay. It counts as biochemical. The procedure: Elastin (2 mg) was incubated in I ml buffer containing 2.5 mM dithiothreitol, 2.5 mM EDTA and 0.05% Triton X-100 for the cathepsin O2, S and L assays. Aliquots were withdrawn after 10, 20, 30, 50, 90, 120 and 180 min, centrifuged for 1 min at 14,000×g and counted in a 24-well plate containing scintillation fluid with Liquid Scintillation counter (1450 Microbeta Plus, Wallac/Pharmacia). Concentrations of human cathepsins O2, S and L and bovine elastase in the elastin degradation assay were 65 nM, 28 nM, 80 nM and 80 nM, respectively. To determine the pH effect on protease activity the digests were carried out at pH 4.5 and 5.5 (100 mM sodium acetate, 2.5 mM each dithiothreitol and EDTA, 0.05% Triton X-100), and at pH 7.0 (100 mM Tris/HCl, 2.5 mM each of dithiothreitol and EDTA, 0.05% Triton X-100). Pancreatic bovine elastase (Boehringer, Mannheim, Ind.) was assayed under the same conditions except that neither dithiothreitol nor EDTA was added to the incubation mixture.

The nature of another data set: pH stability at 37° C. It counts as physicochemical. The procedure: The residual activity was measured in time intervals using the above described fluorimetric substrate assay. The pH stability of cathepsins O2, S and L was studied at three different pH values. Recombinant human cathepsins O2, S and L were incubated at 37° C. in 100 mM sodium acetate buffer, pH 5.5, in 100 mM potassium phosphate buffer, pH 6.5 and in 100 mM Tris/HCl, pH 7.5 containing 5 mM dithiothreitol and 2.5 mM EDTA. Incubating for 0.5, 1, 2 and 4 hours, the activity remaining was determined using 5 μM Z-FR-MCA for cathepsin O2 (100 mM potassium phosphate buffer, pH 6.5) and cathepsin L (100 mM sodium acetate buffer, pH 5.5) and 5 μM Z-VVR-MCA for cathepsin S (100 mM potassium phosphate buffer, pH 6.5).

The nature of another data set: pH activity profile. It counts as biochemical. The conditions noted are these: calculated from (pK1 + pK2)/2. How it is done: Initial rates of substrate hydrolysis were monitored as described above. The pH activity profile of human cathepsin O2 was obtained at 1 μM substrate (Z-FR-MCA) concentration ([S]<<Km where the initial rate vo is directly proportional to the kcat/Km value). The following buffers were used for the pH activity profile: 100 mM sodium citrate (pH 2.8-5.6) and 100 mM sodium phosphate (pH 5.8-8.0). All buffers contained 1 mM EDTA and 0.4 M NaCl to minimize the variation in ionic strength. A three protonation model (Khouri et al., Biochem. 30:8929-8936 (1991)) was used for least square regression analysis of the pH activity data. The data were fitted to the following equation.
(kcat/Km)obs=(kcat/Km)/([H^+]/K1+1+K2/[H^+])

The test system of data set [3] is denatured soluble calf skin collagen. Put plainly: Gelatinase activity, SDS-PAGE. The format is biochemical. The procedure: FIGS. 9A and 9B depict SDS PAGE of type I collagen (soluble calf skin collagen) after digestion with recombinant human cathepsin O2 and L and bovine trypsin. FIG. 9A: Collagenase activity: Digestion of soluble calf skin collagen at 28° C. and at pH 4.0, 5.0, 5.5, 6.0, 6.5, 7.0 by human cathepsins O2, S and L (each 50 nM) for 12 hours. The reaction was stopped by addition of 10 μM E-64. Untreated soluble collagen was used as standard (S). FIG. 9B: Gelatinase activity: Digestion of denatured soluble calf skin collagen (10 min heated at 70° C.) at 28° C. and at pH 4.0, 5.0, 5.5, 6.0, 6.5, 7.0 by human cathepsin O2 (0.1 nM), cathepsin L (0.2 nM) and human cathepsin S (1 nM). Molecular mass standards are indicated in the left lane.
Soluble calf skin Type I collagen was diluted to 0.4 mg/ml into 100 mM-sodium acetate buffer, pH 4.5, 5.0, 5.5, in 100 mM-potassium phosphate buffer, pH 6.0, 6.5 and 100 mM-Tris/HCl, pH 7.0 containing 2 mM-dithiotreitol/2 mM-EDTA. Human cathepsins O2, S and L and bovine trypsin (Sigma) were incubated at concentrations of 100 nM enzyme concentration for 10 hours at 28° C. To measure the gelatinase activity of cathepsins O2 and S, Type I collagen was heated for 10 min at 70° C. prior to incubation with the proteases. In the presence of 1 nM proteases the reaction mix was incubated for 30 min at 28° C. […]

For data set [4] the following is noted: from literature; cited from earlier work.

With `Cl.NCCc1ccc(S(=O)(=O)F)cc1` [Befablock], the “% inhibition” value in data set [1] ([inhibitor] 0.2 mM) came to 0%.

Turning to `O=c1oc(Cl)c(Cl)c2ccccc12` [DCI], the “% inhibition” value in data set [1] ([inhibitor] 0.1 mM) was 0%.

Turning to `CC(C)C[C@H](NC(=O)[C@H]1O[C@@H]1C(=O)O)C(=O)NCCCCN=C(N)N` [E-64], the “% inhibition” value in data set [1] ([inhibitor] 0.1 μM) was 100%. For the same compound, the “inhibition of enzyme activity” value in data set [1] (concentrations above 0.1 μM) is “completely inhibit”.

`O=C(O)CN(CCN(CC(=O)O)CC(=O)O)CC(=O)O` [EDTA]: the “% inhibition” value in data set [1] ([inhibitor] 4 mM) is 0%. In addition, the “effect on the activity of cathepsin O2” value in data set [1] (concentration of 4 mM) is given as “No effect”. The “inhibition of cathepsin O2” value in data set [1] (higher concentrations (>5 mM)) is reported as “partial non-specific inhibition”.

As to `O=S(=O)(F)Cc1ccccc1` [PMSF], the “% inhibition” value in data set [1] ([inhibitor] 1 mM) is on record as 0%.

Regarding `C[C@H](NC(=O)[C@H](Cc1ccccc1)NC(=O)OCc1ccccc1)C(=O)C=[N+]=[N-]` [Z-FA-CHN2], the “% inhibition” value in data set [1] ([inhibitor] 0.1 μM) is reported as 100%.

Take `[N-]=[N+]=CC(=O)[C@H](Cc1ccccc1)NC(=O)[C@H](Cc1ccccc1)NC(=O)OCc1ccccc1` [Z-FF-CHN2] (Cbz-Phe-Phe-CHN2): the “% inhibition” value in data set [1] ([inhibitor] 0.1 μM) is reported as 90%.

For `Cc1cc(=O)oc2cc(NC(=O)C(CCCN=C(N)N)NC(=O)C(Cc3ccccc3)NC(=O)OCc3ccccc3)ccc12` (stereo not drawn) [Z-FR-MCA] (Cbz-Phe-Arg-{AMC}; configuration not given here), in data set [2], the Km worked out at 7.5 ± 3.4 µM and the kcat came to 0.90 ± 0.20 s⁻¹.

In the case of `Cc1cc(=O)oc2cc(NC(=O)[C@H](CCCN=C(N)N)NC(=O)[C@H](CC(C)C)NC(=O)OCc3ccccc3)ccc12` [Z-LR-MCA], in data set [2], the Michaelis constant (Km) worked out at 3.8 ± 0.8 µM and the kcat came to 0.98 ± 0.39 s⁻¹.

On to `Cc1cc(=O)oc2cc(NC(=O)[C@H](CCCN=C(N)N)NC(=O)[C@H](CCCN=C(N)N)NC(=O)OCc3ccccc3)ccc12` [Z-RR-MCA] (Cbz-Arg-Arg-{AMC}), for which, in data set [2], the Km was 23 ± 4 µM, the kcat amounted to 0.0005 ± 0.0002 s⁻¹ and the substrate quality result is “very poor substrate”.

`CCCC[C@@H](C=O)NC(=O)[C@H](CC(C)C)NC(=O)OCc1ccccc1` [calpeptin]: the inhibition at 0.1 µM in data set [1] ([inhibitor] 0.1 μM) was found to be 100%.

Consider `CC(C)C[C@H](NC(=O)[C@@H](NC(=O)N[C@@H](Cc1ccccc1)C(=O)O)[C@@H]1CCN=C(N)N1)C(=O)N[C@H](C=O)Cc1ccccc1` [chymostatin], for which, in data set [1], the inhibition at 0.05 µM came out at 64%.

For the compound `O=C(O)CI` [iodo acetate], the “% inhibition” value in data set [1] ([inhibitor] 50 μM) is on record as 60%.

Consider `CC(=O)N[C@@H](CC(C)C)C(=O)N[C@@H](CC(C)C)C(=O)N[C@H](C=O)CCCNC(=N)N` [leupeptin], for which the inhibition at 0.05 µM in data set [1] turned out to be 85%.

For the compound `CC(C)CC(=O)N[C@H](C(=O)N[C@H](C(=O)N[C@@H](CC(C)C)[C@@H](O)CC(=O)N[C@@H](C)C(=O)N[C@@H](CC(C)C)[C@@H](O)CC(=O)O)C(C)C)C(C)C` [pepstatin] (Isovaleryl-VV[Sta]A[Sta]-OH), the inhibition at 0.1 µM in data set [1] ([inhibitor] 0.1 μM) was 0%.

On to Cbz-Val-Arg-{AMC}, for which, in data set [2], the Km was 13.1 ± 5.6 µM and the catalytic constant (kcat) came to 1.06 ± 0.16 s⁻¹.

As for Cbz-Val-Val-Arg-{AMC}, in data set [2], the Km was 18.5 ± 1.5 µM and the kcat is 0.01 ± 0.004 s⁻¹.

With Z-LLR-MCA, the values for the Km in data set [2] and in data set [2] (text value) were 0.4 ± 0.1 µM and 0.4 µM, respectively. For the same compound, the catalytic constant (kcat) in data set [2] stood at 0.02 ± 0.008 s⁻¹.

Take “cathepsin L: recombinant human cathepsin L provided by Dr. Mort [reference compound]”: the figures for the elastinolytic activity in data set [^3H] elastin (pH 4.5), in data set [^3H] elastin (pH 5.5) and in data set [^3H] elastin (pH 7.0) were 18 mg/min/μmol enzyme, 32 mg/min/μmol enzyme and 0 mg/min/μmol enzyme, respectively. The “Residual activity (%)” value in “pH stability at 37° C.” (pH 5.5, 37° C., 0.5 hr) was found to be 87%; in the data set “pH stability at 37° C.” (pH 5.5, 37° C., 1 hr), 78%; in the data set “pH stability at 37° C.” (pH 5.5, 37° C., 2 hr), 71%; in “pH stability at 37° C.” (pH 5.5, 37° C., 4 hr), 51%; in “pH stability at 37° C.” (pH 6.5, 37° C., 0.5 hr) it was 12%; in “pH stability at 37° C.” (pH 6.5, 37° C., 2 hr) it was 0%. Also, the “Residual activity (%)” value in “pH stability at 37° C.” (pH 6.5, 37° C., 4 hr) was found to be 0%; in “pH stability at 37° C.” (pH 7.5, 37° C., 0.5 hr) it was 0%; in “pH stability at 37° C.” (pH 7.5, 37° C., 1 hr) it was 0%; in “pH stability at 37° C.” (pH 7.5, 37° C., 2 hr), 0%; in the data set “pH stability at 37° C.” (pH 7.5, 37° C., 4 hr), 0%. Further, the pH optimum in the data set “pH activity profile” is given as 5.6. For the same compound, in data set [3], the “pH range of gelatinase activity” value is 4.5-5.5. In data set [4], the “pK1 of pH activity profile” value is reported as 4.22 ± 0.28. The “pK1′ of pH activity profile” value in data set [4] is listed as 3.33 ± 0.14. In addition, the “pK2 of pH activity profile” value in data set [4] was 6.95 ± 0.09.
